In brackets after ≈: the same amount, converted by molar mass.
Key:
[1] = Lipophilicity, logD of compound by HPLC analysis; assay type: physicochemical
[2] = biological target: T1, Cytochrome P450 11B2, mitochondrial (Homo sapiens, UniProt P19099); assay: Inhibition of human CYP11B2-CLE9 expressed in chinese hamster V79 cells using 11-deoxycorticosterone as substrate preincubated for 1 hr followed by substrate addition measured for 3 hrs by HTRF assay; assay type: cell-based
T1 sequence (P19099 whole entry): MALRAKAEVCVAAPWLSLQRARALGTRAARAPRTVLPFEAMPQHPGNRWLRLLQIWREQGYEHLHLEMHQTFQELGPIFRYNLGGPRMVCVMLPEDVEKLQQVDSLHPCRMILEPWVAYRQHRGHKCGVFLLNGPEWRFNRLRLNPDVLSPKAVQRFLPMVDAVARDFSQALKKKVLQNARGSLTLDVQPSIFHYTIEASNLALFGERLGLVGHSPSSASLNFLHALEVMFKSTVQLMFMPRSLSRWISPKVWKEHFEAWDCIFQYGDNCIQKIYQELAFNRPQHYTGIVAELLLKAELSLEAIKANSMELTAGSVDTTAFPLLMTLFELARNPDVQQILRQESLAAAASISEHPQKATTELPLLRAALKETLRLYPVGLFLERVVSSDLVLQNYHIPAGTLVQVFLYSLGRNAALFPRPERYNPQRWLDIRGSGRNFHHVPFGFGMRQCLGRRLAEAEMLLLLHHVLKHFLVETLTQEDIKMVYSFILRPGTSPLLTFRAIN

[3] = biological target: T2, Cytochrome P450 11B1, mitochondrial (Homo sapiens, UniProt P15538); assay: Inhibition of human CYP11B1-8C7 expressed in chinese hamster V79 cells using 11-deoxycortisol as substrate preincubated for 1 hr followed by substrate addition measured for 3 hrs by HTRF assay; assay type: ADME, cell-based
T2 sequence (P15538 whole entry): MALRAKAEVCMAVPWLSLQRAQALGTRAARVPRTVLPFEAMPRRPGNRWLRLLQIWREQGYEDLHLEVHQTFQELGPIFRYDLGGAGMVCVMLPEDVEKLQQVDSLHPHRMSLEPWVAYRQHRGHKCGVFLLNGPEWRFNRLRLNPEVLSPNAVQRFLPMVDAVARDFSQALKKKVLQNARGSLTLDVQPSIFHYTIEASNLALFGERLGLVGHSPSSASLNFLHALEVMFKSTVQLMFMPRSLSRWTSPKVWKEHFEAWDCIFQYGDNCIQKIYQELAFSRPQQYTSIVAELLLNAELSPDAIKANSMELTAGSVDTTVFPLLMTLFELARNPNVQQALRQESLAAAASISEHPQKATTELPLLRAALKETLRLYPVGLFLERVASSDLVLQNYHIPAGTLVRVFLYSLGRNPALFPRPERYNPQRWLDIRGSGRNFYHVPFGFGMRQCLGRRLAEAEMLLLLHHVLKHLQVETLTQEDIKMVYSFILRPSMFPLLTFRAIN

CYP11B1 / CYP11B2 = assay: Selectivity ratio of IC50 for human CYP11B1-8C7 expressed in chinese hamster V79 cells to IC50 for human CYP11B2-CLE9 expressed in chinese hamster V79 cells; assay type: ADME, cell-based; conditions: read-out: Ratio IC50
[4] = Solubility of the compound in PBS buffer at pH 2; assay type: physicochemical
[5] = Solubility of the compound in PBS buffer at pH 7; assay type: physicochemical
[6] = Intrinsic clearance in Sprague-Dawley rat liver microsomes at 0.3 mM preincubated for 10 mins followed by NADPH addition measured up to 45 mins by LC/MS analysis; assay type: ADME; conditions: read-out: CLH
[7] = Ratio of IC50 for human CYP17 expressed in African green monkey COS7 cells to IC50 for human CYP11B2-CLE9 expressed in chinese hamster V79 cells; parameters: species or system COS-7
[8] = Ratio of IC50 for CYP19A1 (unknown origin) to IC50 for human CYP11B2-CLE9 expressed in chinese hamster V79 cells
[9] = Ratio of IC50 for CYP21 (unknown origin) to IC50 for human CYP11B2-CLE9 expressed in chinese hamster V79 cells
[10] = Oral bioavailability in Sprague-Dawley rat at 2 mg/kg administered via gavage by LC-MS/MS analysis; assay type: ADME, organism-based; conditions: in vivo
[11] = Dose normalized AUC in Sprague-Dawley rat at 2 mg/kg administered via oral gavage by LC-MS/MS analysis; assay type: ADME, organism-based; conditions: in vivo
[12] = Clearance in Sprague-Dawley rat plasma at 1 mg/kg, iv or 2 mg/kg administered via oral gavage by LC-MS/MS analysis; assay type: ADME, organism-based
[13] = Half life in Sprague-Dawley rat plasma at 1 mg/kg, iv or 2 mg/kg administered via oral gavage by LC-MS/MS analysis; assay type: ADME, organism-based
[14] = Oral bioavailability in Sprague-Dawley rat at 1 mg/kg administered via gavage by LC-MS/MS analysis; assay type: ADME, organism-based; conditions: in vivo
[15] = Dose normalized AUC in Sprague-Dawley rat at 1 mg/kg administered via oral gavage by LC-MS/MS analysis; assay type: ADME, organism-based; conditions: in vivo
[16] = Clearance in Sprague-Dawley rat plasma at 0.5 mg/kg, iv or 1 mg/kg administered via oral gavage by LC-MS/MS analysis; assay type: ADME, organism-based
[17] = Half life in Sprague-Dawley rat plasma at 0.5 mg/kg, iv or 1 mg/kg administered via oral gavage by LC-MS/MS analysis; assay type: ADME, organism-based

Row | IC50 [2] [µM] | IC50 [3] [µM] | CLint scaled at 300 µM [6] [L/h/kg] | Structure (SMILES) | selectivity ratio (CYP11B1 / CYP11B2) | also measured
1 | 0.073 | 2.19 |  | CC1(C)CN(c2cncc(N3CCC4(CCC(=O)N4)CC3)n2)C1 | 30 | 
2 | 0.106 | 1.67 | 77.5 | c1ccc2c(N3CCC4(CCCC4)CC3)cncc2c1 | 16 | logD [1]: 5.6; solubility [4]: 176 µM (≈ 46.9 µg/mL); solubility [5]: 3 µM (≈ 0.799 µg/mL)
3 | 0.704 | 0.787 |  | c1ccc2c(N3CCC4(CCCO4)CC3)cncc2c1 | 1 | 
4 | 0.228 | 2 | 4.56 | CN1CC2(CCN(c3cncc4ccccc34)CC2)CC1=O | 9 | logD [1]: 1.6; solubility [4]: 149 µM (≈ 44 µg/mL); solubility [5]: 167 µM (≈ 49.3 µg/mL)
5 | 0.554 | 1.57 |  | c1ccc2c(N3CCC4(CCCCC4)CC3)cncc2c1 | 3 | 
6 | 1.13 | > 8 |  | CC(C)(C)OC(=O)N1CCC2(CCN(c3cncc4ccccc34)CC2)C1 | > 7 | 
7 | 0.034 | 1.74 |  | CC1(C)CN(c2cncc(N3CCC4(CC3)CNC(=O)C4)n2)C1 | 51 | 
8 | > 8 | > 8 |  | CN1CCC2(CCN(c3cncc4ccccc34)CC2)C1=O |  | 
9 | 0.094 | 4.46 |  | CN1CC2(CCN(c3cncc(N4CC(C)(C)C4)n3)CC2)CC1=O | 47 | 

Continued, compound first:

Row | Structure (SMILES) | IC50 [2] [µM] | IC50 [3] [µM] | CLint scaled at 300 µM [6] [L/h/kg] | selectivity ratio (CYP11B1 / CYP11B2) | also measured
10 | c1ccc2c(N3CCC4(CCOC4)CC3)cncc2c1 | 0.013 | 0.387 | < 1.2 | 24 | logD [1]: 2.6; solubility [4]: 196 µM (≈ 52.6 µg/mL); solubility [5]: 165 µM (≈ 44.3 µg/mL)
11 | c1ccc2c(N3CCC4(CC3)COC4)cncc2c1 | 0.042 | 1.59 |  | 37 | 
12 | c1ccc2c(N3CCC4(CCNC4)CC3)cncc2c1 | > 10 | 1.31 |  | < 1 | 
13 | CN1CC2(CCN(c3cncc([C@@](C)(O)C(F)(F)F)c3)CC2)CC1=O | 0.448 | 10 |  | > 22 | 
14 | CN1CC2(CCN(c3cncc([C@](C)(O)C(F)(F)F)c3)CC2)CC1=O | 0.032 | 1.54 | < 1.2 | 49 | Ratio IC50 [7]: >200; Ratio IC50 [8]: >200; Ratio IC50 [9]: >200; bioavailability [10]: 91%; AUC/dose [11]: 2.15 µM·kg·h/mg; clearance [12]: 1.44 L/h/kg; half-life [13]: 72 min
15 | C[C@](O)(c1cncc(N2CCC3(CCOC3)CC2)c1)C(F)(F)F | 0.013 | 0.355 | < 1.2 | 28 | bioavailability [14]: 100%; AUC/dose [15]: 0.85 µM·kg·h/mg; clearance [16]: 2.16 L/h/kg; half-life [17]: 30 min
16 | CC(=O)N1CCC2(CCN(c3cncc4ccccc34)CC2)C1 | 1.03 | 1 |  | 1 | 

From ChEMBL document CHEMBL3870364, “Discovery of Spirocyclic Aldosterone Synthase Inhibitors as Potential Treatments for Resistant Hypertension” (ACS Med Chem Lett, 2017)
